Values after ≈ are worked out from the molar mass of the structure shown.
What was measured:
[1] = test system: Salmonella typhi; test: Antibacterial activity against Salmonella typhi MTCC 98 by broth microdilution assay method; assay type: functional, Salmonella enterica subsp. enterica serovar Typhi; conditions: Salmonella enterica
[2] = test system: Vibrio cholerae; test: Antibacterial activity against Vibrio cholerae MTCC 3906 by broth microdilution assay method; assay type: functional
[3] = test system: Streptococcus pneumoniae; test: Antibacterial activity against Streptococcus pneumoniae MTCC 1936 by broth microdilution assay method; assay type: functional
[4] = test system: Plasmodium falciparum; test: Antimalarial activity against Plasmodium falciparum; assay type: functional
[5] = test system: Escherichia coli; test: Antibacterial activity against Escherichia coli MTCC 443 by broth microdilution assay method; assay type: functional
[6] = test system: Mycobacterium tuberculosis; test: Antitubercular activity against Mycobacterium tuberculosis H37Rv at 6 ug/mL; assay type: functional
[7] = test system: Bacillus subtilis; test: Antibacterial activity against Bacillus subtilis MTCC 441 by broth microdilution assay method; assay type: functional
[8] = test system: Clostridium tetani; test: Antibacterial activity against Clostridium tetani MTCC 449 by broth microdilution assay method; assay type: functional

SMILES | MIC [1] | MIC [2] | MIC [3] | IC50 [4] | MIC [5] | inhibition at 6 µg/mL [6] | MIC [7] | MIC [8]
O=C1CCSC(c2ccc(Cl)cc2)N1CCNc1ccnc2cc(Cl)ccc12 (centres undefined) | 250 µg/mL (≈ 578 µM) | 125 µg/mL (≈ 289 µM) | 125 µg/mL (≈ 289 µM) | 0.098 µg/mL (≈ 0.227 µM) | 125 µg/mL (≈ 289 µM) | 73% | 62.5 µg/mL (≈ 145 µM) | 62.5 µg/mL (≈ 145 µM)
COc1ccc(C2SCCC(=O)N2CCNc2ccnc3cc(Cl)ccc23)cc1 (centres undefined) | 250 µg/mL (≈ 584 µM) | 250 µg/mL (≈ 584 µM) | 250 µg/mL (≈ 584 µM) | 0.62 µg/mL (≈ 1.45 µM) | 125 µg/mL (≈ 292 µM) | 60% | 250 µg/mL (≈ 584 µM) | 125 µg/mL (≈ 292 µM)
Cc1ccc(C2SCCC(=O)N2CCNc2ccnc3cc(Cl)ccc23)cc1 (centres undefined) | 500 µg/mL (≈ 1210 µM) | 250 µg/mL (≈ 607 µM) | 500 µg/mL (≈ 1210 µM) | 1.97 µg/mL (≈ 4.78 µM) | 250 µg/mL (≈ 607 µM) | 57% | 250 µg/mL (≈ 607 µM) | 250 µg/mL (≈ 607 µM)
O=C(NN1C(=O)CCSC1c1cccc(F)c1)c1cnc2c(C(F)(F)F)cccc2c1O (centres undefined) | 250 µg/mL (≈ 537 µM) | 125 µg/mL (≈ 269 µM) | 250 µg/mL (≈ 537 µM) | 0.91 µg/mL (≈ 1.96 µM) | 125 µg/mL (≈ 269 µM) | 73% | 125 µg/mL (≈ 269 µM) | 125 µg/mL (≈ 269 µM)
O=C1CCSC(c2ccc(F)cc2)N1CCNc1ccnc2cc(Cl)ccc12 (centres undefined) | 62.5 µg/mL (≈ 150 µM) | 125 µg/mL (≈ 301 µM) | 62.5 µg/mL (≈ 150 µM) | 0.081 µg/mL (≈ 0.195 µM) | 62.5 µg/mL (≈ 150 µM) | 80% | 62.5 µg/mL (≈ 150 µM) | 15.6 µg/mL (≈ 37.5 µM)
O=C(NN1C(=O)CCSC1c1ccccc1)c1cnc2c(C(F)(F)F)cccc2c1O (centres undefined) | 500 µg/mL (≈ 1120 µM) | 500 µg/mL (≈ 1120 µM) | 500 µg/mL (≈ 1120 µM) | 2.1 µg/mL (≈ 4.69 µM) | 500 µg/mL (≈ 1120 µM) | 55% | 250 µg/mL (≈ 559 µM) | 500 µg/mL (≈ 1120 µM)
O=C1CCSC(c2ccccc2)N1CCNc1ccnc2cc(Cl)ccc12 (centres undefined) | 500 µg/mL (≈ 1260 µM) | 250 µg/mL (≈ 628 µM) | 500 µg/mL (≈ 1260 µM) | 2.7 µg/mL (≈ 6.79 µM) | 500 µg/mL (≈ 1260 µM) | 50% | 250 µg/mL (≈ 628 µM) | 250 µg/mL (≈ 628 µM)
O=C1CCSC(c2ccc(Br)cc2)N1CCNc1ccnc2cc(Cl)ccc12 (centres undefined) | 100 µg/mL (≈ 210 µM) | 31.2 µg/mL (≈ 65.5 µM) | 62.5 µg/mL (≈ 131 µM) | 0.045 µg/mL (≈ 0.0944 µM) | 125 µg/mL (≈ 262 µM) | 95% | 31.2 µg/mL (≈ 65.5 µM) | 31.2 µg/mL (≈ 65.5 µM)
